US20240180881A1, “METHODS FOR DECREASING RESISTANCE TO CHEMOTHERAPY” (National Institute of Immunology, priority 2022, published 2024)

How the values were obtained:
[1] = target: T1, RAD54 (Homo sapiens, UniProt Q92698); assay: ATP binding assay; assay type: biochemical; details: 10 μM compound
T1 construct: GST RAD54 (1-747) (WT); made in house; host or cells: E. coli BL-21 DE3
T1 sequence (Q92698 1-747): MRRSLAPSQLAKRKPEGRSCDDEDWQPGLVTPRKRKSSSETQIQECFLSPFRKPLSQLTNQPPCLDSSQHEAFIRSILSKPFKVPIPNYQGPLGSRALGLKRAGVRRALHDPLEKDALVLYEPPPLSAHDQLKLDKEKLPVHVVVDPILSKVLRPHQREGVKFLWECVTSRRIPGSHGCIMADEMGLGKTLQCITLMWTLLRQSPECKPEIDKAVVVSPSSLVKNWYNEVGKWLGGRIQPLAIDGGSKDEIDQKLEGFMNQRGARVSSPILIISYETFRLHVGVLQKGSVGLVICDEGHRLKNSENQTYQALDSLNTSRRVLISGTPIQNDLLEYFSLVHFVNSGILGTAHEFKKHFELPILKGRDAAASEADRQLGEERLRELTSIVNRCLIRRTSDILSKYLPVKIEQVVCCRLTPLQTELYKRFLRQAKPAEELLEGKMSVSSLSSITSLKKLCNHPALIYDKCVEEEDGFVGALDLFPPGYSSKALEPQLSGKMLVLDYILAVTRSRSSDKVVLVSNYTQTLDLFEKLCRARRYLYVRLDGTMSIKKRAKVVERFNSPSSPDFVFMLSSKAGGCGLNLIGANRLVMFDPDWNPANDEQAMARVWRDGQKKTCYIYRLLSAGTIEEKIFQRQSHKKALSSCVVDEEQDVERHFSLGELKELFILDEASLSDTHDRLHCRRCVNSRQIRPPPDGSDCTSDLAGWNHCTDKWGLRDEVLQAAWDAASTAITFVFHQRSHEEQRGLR
Protocol: The quantitation of the ATP binding assay was carried out using RAD54 WT, RAD54 WT+BLM_peptide, and RAD54 WT+SCM_peptide. The data is from three independent experiments. Mean±S.D.
The presence of the disruptors also led to a decrease in the ATP binding to RAD54.
A 20 μl reaction was set up with 120 nM of GST-RAD54 and 180 nM of either BLM_peptide or SCM_peptide or BLM (1-212) using 4 μl of 5×ATP binding assay buffer (100 mM Tris-Cl pH 7.5, 50 mM MgCl2, 10 mM MnCl2, 5 mM DTT) and 5 μCi of [γ^32P]dATP. […] Reactions were incubated at 30° C. for 20 minutes and were stopped with 10% TCA and samples were spotted on P81 phosphocellulose paper followed by washing of paper strips with 75 mM orthophosphoric acid. A minimum of 8 washes were given in 20 hrs of 1 hr each including a 12 hr wash. Following this, strips were dehydrated in ethanol for 10 min followed by liquid scintillation counting. Reactions without the substrate were spotted as control and the same process repeated.

[2] = test system: HCT116 CPT(R) cells stably expressing BLM (Delta 181-212) in BLM−/− background; assay: Xenograft, cells expressing BLM (Delta 181-212); assay type: in vivo, NSG mice; details: for tumour volume, chemosensitivity to camptothecin: CPT + compound
Protocol: Xenografts assays were carried out in NSG mice using HCT116 CPT(R) cells stably expressing BLM (Delta 181-212) in BLM−/− background. FIGS. 15A-15C show the tumour volumes post-injection of cells.
RNA (FIG. 15D) or protein (FIG. 15E) levels of the indicated MDR genes were determined by RT-qPCR or immunoblotting with the indicated antibodies.

[3] = test system: HT-29 OHP(R) cells; assay: Xenograft, HT-29 OHP(R); assay type: in vivo, NSG mice; details: for tumour volume, chemoresistance: CPT + compound
Protocol: Xenografts assays were carried out in NSG mice using HT-29 OHP(R) cells.
RNA (FIG. 16D) or protein (FIG. 16E) levels of the indicated MDR genes were determined by RT-qPCR or immunoblotting with the indicated antibodies.

[4] = test system: CT26 cells; assay: Syngeneic or allogenic model, CT26; assay type: in vivo, BALB/c mice; details: for tumour volume, chemoresistance: CPT + compound
Protocol: Xenografts assays were carried out in BALB/c mice using CT26 cells.
RNA (FIG. 17D) or protein (FIG. 17E) levels of the indicated MDR genes were determined by RT-qPCR or immunoblotting with the indicated antibodies.

[5] = target: T2, RAD54-BLM interaction (Homo sapiens, UniProt Q92698); assay: In vitro interaction assay, bound GST-BLM WT and soluble His-RAD54 WT; assay type: binding; details: 10 μM compound
T2 construct: made in house; host or cells: E. coli BL-21 DE3
T2 sequence (Q92698 1-747): T1 sequence (Q92698 1-747)
Protocol: (§1) The levels of bound RAD54 were determined by immunoblotting with anti-RAD54 antibody (FIG. 5B). […] (Left) Direct westerns were carried out with antibodies against BLM, RAD54, bActin. (Right) immunoprecipitation (IP) was carried out with anti-BLM antibody. Westerns were carried out with anti-BLM, anti-RAD54 antibodies. The experiment was repeated three times and one representative experiment has been shown (FIG. 11B).
pcDNA3.1 Flag RAD54 was used for coupled in vitro transcription/translation of RAD54 using T7 Quick coupled Transcription/Translation System kit S^35 methionine. Interaction between bound GST-BLM (wildtype or mutants) and radiolabelled RAD54 were carried out as described previously (Gupta et al., 2014). […] 10 μM of the 3 compounds were used in the in vitro interaction assays.

[6] = target: T3, RAD54-BLM interaction in HEK293T cells (Homo sapiens, UniProt Q92698); assay: In cellulo interaction assay, immunoprecipitation with anti-BLM antibody; assay type: cell-based; details: 100 nM compound, 72 hours
T3 construct: endogenous in cells; host or cells: HEK293T
T3 sequence (Q92698 1-747): T1 sequence (Q92698 1-747)
Protocol: as §1

[7] = test system: MDR genes (MRP2, MRP3, MRP5, MXR) in HCT116 IC60 CPTR cells; details: 100 nM compound alone, 72 hours
Protocol: Concentrations of CPT used: 0.140 nM, 20 nM, 50 nM, 1000 nM. Concentration of 1-OHP: 0.14 μM, 2 μM, 4 μM, 6 μM, 8 μM. Concentrations of CDDP used: 0.140 μM, 2 μM, 5 μM, 10 μM. The percentage of viable cells were determined by MTT assays (FIG. 12A-12C). The data in FIG. 12A and FIG. 12C is from three independent experiments and the data in FIG. 12B is from nine independent experiments. […] The levels of MRP2, MRP3, MRP5, MXR were quantitated from three independent experiments. […] Specifically, HCT116 IC60 CPTR cells were transfected with the HR substrate for 72 hours and the levels of HR was determined (FIG. 6A). The data is from three independent experiments. […] The number of soft agar colonies in each condition were counted. The data is from three independent experiments.

[8] = without or with compound treatment

SMILES: CN1CCN(C2=Nc3ccccc3Oc3ccc(Cl)cc32)CC1.O=C(O)CCC(=O)O [C17, Loxapine succinate]
- BLM dependent enhancement of ATP binding by RAD54 [1]: decreased BLM dependent enhancement of the binding of ATP by RAD54
- tumour volume, chemosensitivity to camptothecin [2]: abrogates the functions
- RNA and protein levels of the MDR genes in tumours [2, 8]: unaffected
- tumour volume, chemoresistance [3]: reverses chemoresistance
- RNA and protein levels of the MDR genes in tumours [3, 8]: decreased
- tumour volume, chemoresistance [4]: reverses chemoresistance
- RNA and protein levels of the MDR genes in tumours [4, 8]: decreased

SMILES: OCCN(CCO)c1nc(N2CCCCC2)c2nc(N(CCO)CCO)nc(N3CCCCC3)c2n1 [C7, Dipyridamole]
- levels of RAD54 bound to GST-BLM WT [5]: disrupted the RAD54-BLM interaction
- RAD54 co-immunoprecipitated with BLM [6]: disrupted the RAD54-BLM interaction
- BLM dependent enhancement of ATP binding by RAD54 [1]: decreased BLM dependent enhancement of the binding of ATP by RAD54
- transcript levels of MDR genes [7]: do not alter the transcript levels of MDR genes
- tumour volume, chemosensitivity to camptothecin [2]: abrogates the functions
- tumour volume, chemoresistance [3]: reverses chemoresistance
- tumour volume, chemoresistance [4]: reverses chemoresistance

SMILES: CC(=O)Nc1nnc(S(N)(=O)=O)s1 [C3, Acetazolamide]
- levels of RAD54 bound to GST-BLM WT [5]: disrupted the RAD54-BLM interaction
- RAD54 co-immunoprecipitated with BLM [6]: disrupted the RAD54-BLM interaction
- BLM dependent enhancement of ATP binding by RAD54 [1]: decreased BLM dependent enhancement of the binding of ATP by RAD54
- transcript levels of MDR genes [7]: do not alter the transcript levels of MDR genes
- tumour volume, chemosensitivity to camptothecin [2]: abrogates the functions
- tumour volume, chemoresistance [3]: reverses chemoresistance
- tumour volume, chemoresistance [4]: reverses chemoresistance
